Measured values reported in patent US20090275503A1, “DIASTEREOMERIC PEPTIDES FOR MODULATING T CELL IMMUNITY” (Yeda Research and Developent Co., Ltd. at the Weizman …, priority 2005, published 2009).
Non-standard residues stand in square brackets, D forms with d. No end group written: not given here.

Key:
[1] = test system: target cells; assay: Cytotoxic effect on the target cells (Part A); settings: incubated with the target cells
[2] = test system: Lewis rats; assay: Delayed type hypersensitivity to PPD in AA rats (Part A); assay type: in vivo, rat; settings: 16 days after AA induction, ear thickness 48 hr after PPD
Experimental: Twenty μl of PPD (0.5 mg/ml in PBS) were injected intradermally into the pinna of the right ear of each rat on day 16 after AA induction; 20 μl of sterile PBS were injected in the left ear as control. The thickness of the ear was measured 48 hr later using a vernier caliper and expressed as the difference between the right and the left ear (Quintana et al., 2005).

[3] = test system: Lewis rats; assay: Adjuvant arthritis (AA) in Lewis rats (Part A); assay type: in vivo, rat
Experimental: To test the effect of CP on T-cell activation in vivo, the experimental T-cell mediated autoimmune disease adjuvant arthritis (AA) was used. AA was induced by injecting 50 μl of Mt suspended in IFA (10 mg/ml) at the base of the tail. At the time of AA induction, each rat also received 100 μg of all-L CP, 2D-CP or 2G CP control peptide (or PBS) dissolved in 50 μl of IFA and mixed with Mt/IFA used to induce AA. The day of AA induction was designated as day 0. Disease severity was assessed by direct observation of all 4 limbs in each animal. A relative score between 0 and 4 was assigned to each limb, based on the degree of joint inflammation, redness and deformity; thus the maximum possible score for an individual animal was 16 (Quintana et al., 2002). The mean AA score (±SEM) is shown for each experimental group. Arthritis was also quantified by measuring hind limb diameter with a caliper. Measurements were taken on the day of the induction of AA and 26 days later (at the peak of AA); the results are presented as the mean±SEM of the difference between the two values for all the animals in each group. The person who scored the disease was blinded to the identity of the groups.
Next, the contribution of the secondary structure and the side-chains to the inhibitory effects of CP on T cell activation In vivo was analyzed, using the experimental autoimmune disease Adjuvant Arthritis (AA). Immunization of Lewis rats with Mt triggers AA, an autoimmune disease driven by Mt-specific T cells that cross-react with self-antigen (Holoshitz et al., 1984; Holoshitz et al., 1983). PPD and Mt176-90 are targeted by the arthritogenic T-cell response (Anderton et al., 1994); indeed immunomodulatory therapies that inhibit the progression of arthritis have been associated with a decreased T cell response to PPD and Mt176-90 and with a diminished delayed type hypersensitivity (DTH) response to PPD (van Eden et al., 1985).

With “GLRILLLKV [2D-CP] (GL[dR]ILLL[dK]V-NH2; also: rhodamine label, position not given here) [CP diastereomer]” the Cytotoxic effect [1] was “None of the peptides (all-L CP, 2D-CP or 2G CP) had a cytotoxic effect”, the “Reduction in the DTH response to PPD” value [2] was 51% and the “Mean maximum AA score” value ([3]; 100 μg peptide per rat at AA induction, maximum possible score 16) was 6.6±0.7. The “Effect on adjuvant arthritis (clinical score and paw swelling)” value ([3]; 100 μg peptide per rat with Mt at the time of AA induction) was “significantly milder arthritis”, the “Further decrease in the AA score” value ([3]; dose increased to 900 μg per rat) was 25% and the “Improvement in paw swelling” value ([3]; dose increased to 900 μg per rat, day 26) was 50%.
